What was measured:
LPA1 receptor = target: T1, LPA1 receptor (Homo sapiens, UniProt Q92633); experiment: LPA-induced Ca2+ transients in RH7777 cells stably expressing LPA1 (agonism/antagonism); assay type: cell-based; details: RH7777 cells expressing LPA1, compared to LPA 18:1
T1 construct: expressed in transfected cells
Method: (§1) RH7777 cells stably expressing either LPA1, LPA2 or LPA3 or PC-3 cells were plated on poly-D lysine-coated black wall clear bottom 96-well plates (Becton Dickinson, San Jose, Calif.) with a density of 50000 cells/well, and cultured overnight. The culture medium (DMEM containing 10% FBS) was then replaced with modified Krebs solution (120 mM NaCl, 5 mM KCl, 0.62 mM MgSO4, 1.8 mM CaCl2, 10 mM HEPES, 6 mM glucose, pH 7.4) and the cells were serum starved for 6-8 hours (12 h for PC-3 cells). […] Changes in intracellular Ca^2+ concentration were monitored by measuring the ratio of emitted light intensity at 520 nm in response to excitation by 340 nm and 380 nm wavelength lights, respectively. Each well was monitored for 80-120 seconds. […] Time courses were recorded using the SoftMax Pro software (Molecular Devices, Sunnyvale, Calif.). Ca^+ transients were quantified automatically by calculating the difference between maximum and baseline ratio values for each well.
(§2) These new analogs were evaluated as agonists and antagonists with respect to LPA1-3. […]

LPA2 receptor = target: T2, LPA2 receptor (Homo sapiens, UniProt Q9HBW0); experiment: LPA-induced Ca2+ transients in RH7777 cells stably expressing LPA2 (agonism/antagonism); assay type: cell-based; details: RH7777 cells expressing LPA2, compared to LPA 18:1
T2 construct: expressed in transfected cells
Method: as §1, §2

LPA3 receptor = target: T3, LPA3 receptor (Homo sapiens, UniProt Q9UBY5); experiment: LPA-induced Ca2+ transients in RH7777 cells stably expressing LPA3 (agonism/antagonism); assay type: cell-based; details: RH7777 cells expressing LPA3, compared to LPA 18:1
T3 construct: expressed in transfected cells
T3 sequence (Q9UBY5 1-353): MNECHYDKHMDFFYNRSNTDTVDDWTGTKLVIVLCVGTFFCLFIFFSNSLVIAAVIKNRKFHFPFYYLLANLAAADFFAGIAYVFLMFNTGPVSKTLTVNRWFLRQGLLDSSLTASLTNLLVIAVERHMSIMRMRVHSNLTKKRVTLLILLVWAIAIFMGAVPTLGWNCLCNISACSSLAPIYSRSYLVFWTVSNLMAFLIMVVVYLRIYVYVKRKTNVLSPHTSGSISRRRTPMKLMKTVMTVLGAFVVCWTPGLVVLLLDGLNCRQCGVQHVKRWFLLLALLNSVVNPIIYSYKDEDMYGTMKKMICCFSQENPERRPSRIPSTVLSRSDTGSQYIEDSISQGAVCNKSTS
Method: as §1, §2

IEC-6 cells [1] = experiment: Camptothecin-induced DNA fragmentation in IEC-6 cells (Example 8, Cell Death Detection ELISA); assay type: cell-based; details: 20 μM camptothecin; LPA and FAP 12 at 10 μM
Method: IEC-6 cells were grown in DMEM medium supplemented with 5% fetal bovine serum, insulin (10 μg/ml), gentamycin sulfate (50 μg/ml), and incubated at 37° C. in a humidified 90% air-10% CO2 atmosphere. Medium was changed every other day. Sub-confluent cells were washed twice and replaced by DMEM without serum the night before experiments.
Damage and IEC-6 cell apoptosis was induced via either γ-irradiation or chemotherapy. 20 Gy single dose of [^137Cs] source γ-irradiation was used in all experiments. […] In some experiments, LPA was added at different times before or after irradiation. Treatment with 20 μM camptothecin of IEC-6 cells induces DNA fragmentation as measured by the ELISA assay at 16 h after treatment. DNA fragmentation was quantified using the Cell Death Detection ELISA kit from Boehringer (Indianapolis, Ind.) according to the instructions of the manufacturer. Samples were run in triplicate. A duplicate of the sample was used to quantify protein concentration using the BCA kit from Pierce (Rockford, Ill.). DNA fragmentation was expressed as absorbance units per μg protein per minute.

[2] = tested on: small intestine crypts of irradiated mice; experiment: Crypt survival in whole-body gamma-irradiated mice (Example 9); assay type: in vivo
Method: ICR strain male mice (Harlan Laboratories, body weight 30-33 g) on a 12 h light/dark cycle and otherwise maintained on a standard laboratory chow ad libitum were starved for 16 h prior to treatment. WBI was done with a 12 Gy or 15 Gy dose using Cs^137 source at a dose rate of 1.9 Gy per minute. Groups of four mice received either 250 μl of 1 mM LPA complexed with 100 μM BSA dissolved in Hanks basal salt solution or the BSA vehicle alone 2 h prior to irradiation.
For detection of the apoptotic bodies, mice were euthanized with carbon dioxide inhalation 4 h after irradiation and the small intestine was dissected and fixed in neutral phosphate buffered isotonic 10% formalin. Four ˜3- to 4-mm long segments from the small intestine were embedded in paraffin, 5 μM thick sections were cut and stained with hematoxilin and eosin. The number of surviving crypts was counted 3.5 days after irradiation.

LPA receptors (LPA1/2/3) = experiment: LPA receptor agonist/antagonist activity (Table 4); assay type: cell-based
Method: Compounds were tested for their ability to induce or inhibit LPA-induced calcium transients in RH7777 rat hepatoma cells stably expressing LPA1, LPA2, and LPA3 receptors and in PC-3 that express LPA1-3 endogenously, using a FlexStation II automated fluorometer (Molecular Devices, Sunnyvale, Calif.).
RH7777 cells stably expressing either LPA1, LPA2 or LPA3 or PC-3 cells were plated on poly-D lysine-coated black wall clear bottom 96-well plates (Becton Dickinson, San Jose, Calif.) with a density of 50000 cells/well, and cultured overnight. The culture medium (DMEM containing 10% FBS) was then replaced with modified Krebs solution (120 mM NaCl, 5 mM KCl, 0.62 mM MgSO4, 1.8 mM CaCl2, 10 mM HEPES, 6 mM glucose, pH 7.4) and the cells were serum starved for 6-8 hours (12 h for PC-3 cells). Cells were loaded with Fura-2 AM for 35 minutes in modified Krebs medium. The Fura-2 was removed before loading the plate in the FlexStation instrument by replacing the medium once again with 100 μl modified Krebs medium/well. Plates were incubated for 4 minutes in the instrument to allow for warming to 37° C. Changes in intracellular Ca^2+ concentration were monitored by measuring the ratio of emitted light intensity at 520 nm in response to excitation by 340 nm and 380 nm wavelength lights, respectively. Each well was monitored for 80-120 seconds. […] Time courses were recorded using the SoftMax Pro software (Molecular Devices, Sunnyvale, Calif.). Ca^+ transients were quantified automatically by calculating the difference between maximum and baseline ratio values for each well.

IEC-6 cells [3] = experiment: DNA fragmentation assay in camptothecin-induced IEC-6 cells (Example 11, FIG. 7); assay type: cell-based; details: 20 μM camptothecin, 15 min pre-treatment, 6 hours
Method: IEC-6 cells were obtained from the American Type Culture Collection (Manassas, Va.) and were grown in Dulbecco's modified Eagle medium (DMEM) supplemented with 10% fetal bovine serum, 10 μg/ml insulin, and 50 μg/ml gentamicin sulfate at 37° C. in a humidified 90% air/10% CO2 atmosphere. The medium was changed every other day. Cells between passage 15 and 21 were used for the experiments. Newly synthesized RxBio analogs at doses ranging from […] were used to pre-treat IEC-6 cells for 15 min. Apoptosis was induced by 20 μM camptothecin following the pre-treatment. DNA fragmentation was measured 6 hours after camptothecin treatment by enzyme-linked immunosorbent assay using the cell death detection ELISA^PLUS kit from Roche (Indianapolis, Ind.) following the instruction of the manufacturer. Briefly, cells were harvested and lysed in DNA lysis buffer for 30 min. Sample lysates were collected after centrifugation at 200 rpm for 10 min. 10 μl of supernatant was loaded individually in a 96-well streptavidin-coated plate and incubated with immunoreagents (anti-histone-biotin plus anti-DNA peroxidase conjugated antibody) on a shaker for 2 h. […] DNA absorbance was read at 405 nm in a microplate reader (PerkinElmer, Shelton, Conn.). Aliquots of samples were used to quantify protein concentration using the bicinchoninic acid kit (Pierce, Rockford, Ill.).

T1 sequence (Q92633 whole entry): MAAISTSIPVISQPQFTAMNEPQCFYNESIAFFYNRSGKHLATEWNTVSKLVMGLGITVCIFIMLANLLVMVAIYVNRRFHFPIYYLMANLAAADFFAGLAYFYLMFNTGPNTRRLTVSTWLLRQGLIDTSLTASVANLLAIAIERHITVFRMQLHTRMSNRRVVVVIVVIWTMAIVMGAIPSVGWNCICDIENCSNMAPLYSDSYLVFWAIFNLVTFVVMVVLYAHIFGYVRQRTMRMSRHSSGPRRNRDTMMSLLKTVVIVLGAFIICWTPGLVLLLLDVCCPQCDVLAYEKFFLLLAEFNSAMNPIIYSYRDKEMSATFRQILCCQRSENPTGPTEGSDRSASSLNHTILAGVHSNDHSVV
T2 sequence (Q9HBW0 whole entry): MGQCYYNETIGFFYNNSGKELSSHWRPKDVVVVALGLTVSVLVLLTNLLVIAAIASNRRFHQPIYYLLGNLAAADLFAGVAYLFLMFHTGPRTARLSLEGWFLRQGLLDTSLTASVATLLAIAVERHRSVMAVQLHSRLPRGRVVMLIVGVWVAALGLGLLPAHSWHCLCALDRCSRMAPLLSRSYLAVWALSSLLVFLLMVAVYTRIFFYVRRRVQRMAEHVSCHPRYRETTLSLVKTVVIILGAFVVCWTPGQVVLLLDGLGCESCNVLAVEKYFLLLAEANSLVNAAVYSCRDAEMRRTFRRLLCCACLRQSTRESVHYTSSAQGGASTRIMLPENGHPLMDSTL

Compound	Activity (LPA receptors (LPA1/2/3))	further results
CCCCCCCCC=CCCCCCCCCOP(O)(O)=S [8g, Thiophosphoric acid O-octadec-9-enyl ester]	–	ligand property at LPA1 (FIG. 2A) (LPA1 receptor): agonist; ligand property at LPA2 (FIG. 2B) (LPA2 receptor): agonist; ligand property at LPA3 (FIG. 2C) (LPA3 receptor): agonist; inhibition of camptothecin-induced DNA fragmentation (IEC-6 cells [1]): comparable to that of LPA but supersedes it at concentrations above 3 μM; crypt survival ([2]; 200 μM into the stomach 2 h prior irradiation, FIG. 3): significantly (P>0.01) enhanced crypt survival; crypt survival, dose dependence ([2]; FIG. 4): dose-dependent enhancement of crypt survival; crypt survival in jejunum and ileum compared with LPA ([2]; γ-irradiated mice, FIG. 5): present in the jejunum and ileum and exceeded that of LPA
CCCCCCCCCCCCOP(=O)(O)O [FAP 12]	–	inhibition of camptothecin-induced DNA fragmentation (IEC-6 cells [1]): inhibited
CCCCCCCCCCCCCCC(C(=O)O)C(=O)O [RxBVG-I-8, 2-Tetradecyl-malonic acid]	LPA2 agonist	–
CCCCCCCC(CCCCCCC)OP(=O)(O)O.N.N [RxBVG-I-27, Ammonium phosphoryl-mono-(1-heptyl-octyl) ester]	Pan antago- nist (LPA1/2/3)	–
CCCCCCCC(CCCCCCC)OP(O)(O)=S [RxBVG-I-28, Thiophosphoric acid O-(1-heptyl-octyl) ester]	Pan antago- nist (LPA1/2/3)	–
CCCCCCCCCCCCCCCCCCC(COP(O)(O)=S)COP(O)(O)=S.N [RxBVG-I-64, Ammonium thiophosphoryl-O-(2-thiophosphonooxymethyl-eicosyl) ester]	LPA3 agonist	–
CCCCCCCC/C=C/CCCCCCCCOP(O)(O)=S.N [RxBVG-I-67, Ammonium thiophosphoryl-O-octadec-9E-enyl ester]	LPA3 agonist	–
CCCCCC/C=C\CCCCCCCCOP(O)(O)=S.N [RxBVG-I-81, Ammonium thiophosphoryl-O-hexadec-9Z-enyl ester]	Pan antago- nist (LPA1/2/3)	–
CCCC/C=C\CCCCCCCCCOP(O)(O)=S.N [RxBVG-I-82, Ammonium thiophosphoryl-O-pentadec-10Z-enyl ester]	Pan antago- nist (LPA1/2/3)	–
CCCCC/C=C\C/C=C\CCCCCCCCOP(O)(O)=S [RxBVG-I-83, Ammonium thiophosphoryl-O-octadeca-9Z,12Z-dienyl ester]	LPA2 agonist	–
CCCCCCCCC1CC1CCCCCCCCOP(O)(O)=S.N (stereo not drawn) [RxBVG-I-93, Ammonium thiophosphoryl-O-[8-(2-octyl-cis-cyclopropyl)-octyl]ester]	LPA2 agonist	efficacy in DNA fragmentation assay (IEC-6 cells [3]): even more efficacy than did oleoyl thiophosphate
BP(=O)(O)OCCCCCCCCCCCCCCCCCC [RxBVG-II-7, Potassium boranophosphoryl monooctadecyl ester]	LPA2 agonist	–
BP(=O)(O)OCCCCCCCCCCCCCC [RxBVG-II-9, Potassium boranophosphoryl monotetradecyl ester]	LPA2 agonist	–
BP(=O)(O)OCCCCCCCC [RxBVG-II-13, Potassium boranophosphoryl monooctyl ester]	LPA2 agonist	–
CCCCCCC1CC1CCCCCCCCOP(O)(O)=S.N (centres unmarked) [RxBVG-II-22, Ammonium thiophosphoryl-O-[8-(2-hexyl-cyclopropyl)-octyl]ester]	LPA2 agonist	–
[K+].[O-]P(O)(=S)OCCCCCCCCC1CC1 [RxBVG-II-23, Potassium thiophosphoryl-O-(8-cyclopropyl-octyl) ester]	LPA2 agonist	–
CCCCCCC1CC1CCCCCCCCCCOP([O-])(O)=S.[K+] (centres unmarked) [RxBVG-II-34, Potassium thiophosphoryl-O-[10-(2-hexyl-cyclopropyl)-decyl]ester]	LPA2 agonist	–
CCCCCC1CC1CC1CC1CCCCCCCCOP([O-])(O)=S.[K+] (centres unmarked) [RxBVG-II-35, Potassium thiophosphoryl-O-{8-[2-(2-pentyl-cyclopropylmethyl)-cyclopropyl]octyl}ester]	LPA2 agonist	–
CCCCCCCCC1CC1CCCCCCCCCCOP([O-])(O)=S.[K+] (centres unmarked) [RxBVG-II-36, Potassium thiophosphoryl-O-[10-(2-octyl-cyclopropyl)-decyl]ester]	LPA2 agonist	–
CCCCCCCC/C=C\CCCCCCCC(=O)OC[C@@H](O)COP(=O)(O)O [oleoyl-LPA]	–	inhibition of camptothecin-induced DNA fragmentation (IEC-6 cells [1]): inhibited
Ammonium thiophosphoryl-O-eicos-11Z-enyl ester [RxBVG-I-77]	LPA2 agonist	–
Potassium boranophosphoryl monododecyl ester [RxBVG-II-11]	LPA2 agonist	–
